# Source: ChEMBL document CHEMBL4382260, “Synthesis and biological evaluation as antiangiogenic agents of ureas derived from 3'-aminocombretastatin A-4” (Eur J Med Chem, 2019)
# Activity calls are given as the source filed them. The rule behind the calls is not given here.
# Experiments:
# Tubulin (Homo sapiens) [1] = molecular target: T1, Tubulin (Homo sapiens) (UniProt P68371+Q9H4B7+P0DPH7+P68366+Q13509+Q71U36+P04350+Q3ZCM7+P07437+P68363+Q9BQE3+Q6PEY2+Q13885+Q9BVA1+Q9BUF5); experiment: Disruption of microtubule network in human A549 cells assessed as compressed and fragmented nuclei at […] after 16 hrs by Hoechst staining based immunofluorescence microscopic method; type: cell-based
# A549 [2] = experiment: Cell cycle arrest in human A549 cells assessed as accumulation at subG0 phase at 22 uM after 24 hrs by propidium iodide staining based flow cytometry (reference value: 2 +/- 0.8%); type: functional
# A549 [3] = experiment: Induction of apoptosis in human A549 cells at 50 uM after 20 to 24 hrs by Annexin V-FITC/propidium iodide staining based flow cytometry (reference value: 16%); type: functional
# A549 [4] = experiment: Cell cycle arrest in human A549 cells assessed as accumulation at G2/M phase at 22 uM after 24 hrs by propidium iodide staining based flow cytometry (reference value: 10 +/- 0.8%); type: functional
# HMEC-1 = experiment: Antiangiogenic activity against HMEC1 cells after 20 hrs by tube formation assay; conditions: Homo sapiens, HMEC-1, 20 h
# A549 [5] = experiment: Cell cycle arrest in human A549 cells assessed as accumulation at G0/G1 phase at 22 uM after 24 hrs by propidium iodide staining based flow cytometry (reference value: 60 +/- 1%); type: functional
# HL-60 = experiment: Antiproliferative activity against human HL60 cells by MTT assay; type: functional, cell-based
# A549 [6] = experiment: Induction of apoptosis in human A549 cells at 100 uM after 20 to 24 hrs by Annexin V-FITC/propidium iodide staining based flow cytometry (reference value: 16%); type: functional
# A549 [7] = experiment: Cell cycle arrest in human A549 cells assessed as accumulation at S phase at 22 uM after 24 hrs by propidium iodide staining based flow cytometry (reference value: 28 +/- 0.6%); type: functional
# [8] = molecular target: Vascular endothelial growth factor receptor 2 (Homo sapiens) (UniProt P35968); experiment: Inhibition of VEGFR2 internalization in human A549 cells at 44 uM after 24 hrs by immunofluorescence assay; type: cell-based
# [9] = molecular target: Vascular endothelial growth factor receptor 2 (Homo sapiens) (UniProt P35968); experiment: Inhibition of VEGFR2 internalization in HMEC1 cells assessed as membrane VEGFR2 level at 15 uM after 24 hrs by flow cytometry (reference value: 100%); type: cell-based; set-up: scale not given: the % may be the effect or the level left
# [10] = molecular target: Vascular endothelial growth factor receptor 2 (Homo sapiens) (UniProt P35968); experiment: Inhibition of VEGFR2 internalization in HMEC1 cells at 15 uM after 24 hrs by immunofluorescence assay; type: cell-based
# [11] = molecular target: Vascular endothelial growth factor receptor 2 (Homo sapiens) (UniProt P35968); experiment: Inhibition of VEGFR2 internalization in HMEC1 cells assessed as total VEGFR2 level at 15 uM after 24 hrs by flow cytometry (reference value: 100%); type: cell-based; set-up: scale not given: the % may be the effect or the level left
# [12] = molecular target: Vascular endothelial growth factor receptor 2 (Homo sapiens) (UniProt P35968); experiment: Inhibition of VEGFR2 internalization in HMEC1 cells assessed as membrane VEGFR2 level at 120 uM after 24 hrs by flow cytometry (reference value: 100%); type: cell-based; set-up: scale not given: the % may be the effect or the level left
# [13] = molecular target: Vascular endothelial growth factor receptor 2 (Homo sapiens) (UniProt P35968); experiment: Inhibition of VEGFR2 internalization in HMEC1 cells assessed as total VEGFR2 level at 120 uM after 24 hrs by flow cytometry (reference value: 100%); type: cell-based; set-up: scale not given: the % may be the effect or the level left
# [14] = molecular target: Vascular endothelial growth factor receptor 2 (Homo sapiens) (UniProt P35968); experiment: Inhibition of VEGFR2 internalization in HMEC1 cells at 120 uM after 24 hrs by immunofluorescence assay; type: cell-based
# [15] = molecular target: Vascular endothelial growth factor receptor 2 (Homo sapiens) (UniProt P35968); experiment: Inhibition of VEGFR2 internalization in human A549 cells at 48 uM after 24 hrs by immunofluorescence assay; type: cell-based
# A549 [16] = experiment: Cell cycle arrest in human A549 cells assessed as accumulation at subG0 phase at […] after 24 hrs by propidium iodide staining based flow cytometry (reference value: 2 +/- 0.8%); type: functional
# A549 [17] = experiment: Cell cycle arrest in human A549 cells assessed as accumulation at G0/G1 phase at […] after 24 hrs by propidium iodide staining based flow cytometry (reference value: 60 +/- 1%); type: functional
# A549 [18] = experiment: Cell cycle arrest in human A549 cells assessed as accumulation at G2/M phase at […] after 24 hrs by propidium iodide staining based flow cytometry (reference value: 10 +/- 0.8%); type: functional
# A549 [19] = experiment: Cell cycle arrest in human A549 cells assessed as accumulation at S phase at […] after 24 hrs by propidium iodide staining based flow cytometry (reference value: 28 +/- 0.6%); type: functional
# [20] = molecular target: Vascular endothelial growth factor receptor 2 (Homo sapiens) (UniProt P35968); experiment: Inhibition of VEGFR2 internalization in HMEC1 cells assessed as total VEGFR2 level at […] after 24 hrs by flow cytometry (reference value: 100%); type: cell-based; set-up: scale not given: the % may be the effect or the level left
# [21] = molecular target: Vascular endothelial growth factor receptor 2 (Homo sapiens) (UniProt P35968); experiment: Inhibition of VEGFR2 internalization in HMEC1 cells assessed as membrane VEGFR2 level at […] after 24 hrs by flow cytometry (reference value: 100%); type: cell-based; set-up: scale not given: the % may be the effect or the level left
# [22] = molecular target: Vascular endothelial growth factor receptor 2 (Homo sapiens) (UniProt P35968); experiment: Inhibition of VEGFR2 internalization in HMEC1 cells at 6 uM after 24 hrs by immunofluorescence assay; type: cell-based
# [23] = molecular target: Vascular endothelial growth factor receptor 2 (Homo sapiens) (UniProt P35968); experiment: Inhibition of VEGFR2 internalization in human A549 cells at […] after 24 hrs by immunofluorescence assay; type: cell-based
# [24] = molecular target: Vascular endothelial growth factor receptor 2 (Homo sapiens) (UniProt P35968); experiment: Inhibition of VEGFR2 internalization in HMEC1 cells assessed as total VEGFR2 level at 6 uM after 24 hrs by flow cytometry (reference value: 100%); type: cell-based; set-up: scale not given: the % may be the effect or the level left
# [25] = molecular target: Vascular endothelial growth factor receptor 2 (Homo sapiens) (UniProt P35968); experiment: Inhibition of VEGFR2 internalization in HMEC1 cells assessed as membrane VEGFR2 level at 6 uM after 24 hrs by flow cytometry (reference value: 100%); type: cell-based; set-up: scale not given: the % may be the effect or the level left
# Tubulin (Homo sapiens) [26] = molecular target: T1, Tubulin (Homo sapiens); experiment: Disruption of microtubule network in human A549 cells assessed as compressed and fragmented nuclei at 28 uM after 16 hrs by Hoechst staining based immunofluorescence microscopic method; type: cell-based
# [27] = molecular target: Vascular endothelial growth factor receptor 2 (Homo sapiens) (UniProt P35968); experiment: Inhibition of VEGFR2 internalization in HMEC1 cells at 12 uM after 24 hrs by immunofluorescence assay; type: cell-based
# [28] = molecular target: Vascular endothelial growth factor receptor 2 (Homo sapiens) (UniProt P35968); experiment: Inhibition of VEGFR2 internalization in HMEC1 cells assessed as membrane VEGFR2 level at 12 uM after 24 hrs by flow cytometry (reference value: 100%); type: cell-based; set-up: scale not given: the % may be the effect or the level left
# [29] = molecular target: Vascular endothelial growth factor receptor 2 (Homo sapiens) (UniProt P35968); experiment: Inhibition of VEGFR2 internalization in human A549 cells at 28 uM after 24 hrs by immunofluorescence assay; type: cell-based
# [30] = molecular target: Vascular endothelial growth factor receptor 2 (Homo sapiens) (UniProt P35968); experiment: Inhibition of VEGFR2 internalization in HMEC1 cells assessed as total VEGFR2 level at 12 uM after 24 hrs by flow cytometry (reference value: 100%); type: cell-based; set-up: scale not given: the % may be the effect or the level left
# [31] = molecular target: Vascular endothelial growth factor receptor 2 (Homo sapiens) (UniProt P35968); experiment: Inhibition of VEGFR2 internalization in HMEC1 cells assessed as membrane VEGFR2 level at 0.6 uM after 24 hrs by flow cytometry (reference value: 100%); type: cell-based; set-up: scale not given: the % may be the effect or the level left
# [32] = molecular target: Vascular endothelial growth factor receptor 2 (Homo sapiens) (UniProt P35968); experiment: Inhibition of VEGFR2 internalization in HMEC1 cells at 0.6 uM after 24 hrs by immunofluorescence assay; type: cell-based
# [33] = molecular target: Vascular endothelial growth factor receptor 2 (Homo sapiens) (UniProt P35968); experiment: Inhibition of VEGFR2 internalization in HMEC1 cells assessed as total VEGFR2 level at 0.6 uM after 24 hrs by flow cytometry (reference value: 100%); type: cell-based; set-up: scale not given: the % may be the effect or the level left
# Tubulin (Homo sapiens) [34] = molecular target: T1, Tubulin (Homo sapiens); experiment: Disruption of microtubule network in human A549 cells assessed as compressed and fragmented nuclei at 18 uM after 16 hrs by Hoechst staining based immunofluorescence microscopic method; type: cell-based
# [35] = molecular target: Vascular endothelial growth factor receptor 2 (Homo sapiens) (UniProt P35968); experiment: Inhibition of VEGFR2 internalization in HMEC1 cells at 8 uM after 24 hrs by immunofluorescence assay; type: cell-based
# [36] = molecular target: Vascular endothelial growth factor receptor 2 (Homo sapiens) (UniProt P35968); experiment: Inhibition of VEGFR2 internalization in HMEC1 cells assessed as total VEGFR2 level at 8 uM after 24 hrs by flow cytometry (reference value: 100%); type: cell-based; set-up: scale not given: the % may be the effect or the level left
# [37] = molecular target: Vascular endothelial growth factor receptor 2 (Homo sapiens) (UniProt P35968); experiment: Inhibition of VEGFR2 internalization in HMEC1 cells assessed as membrane VEGFR2 level at 8 uM after 24 hrs by flow cytometry (reference value: 100%); type: cell-based; set-up: scale not given: the % may be the effect or the level left
# [38] = molecular target: Vascular endothelial growth factor receptor 2 (Homo sapiens) (UniProt P35968); experiment: Inhibition of VEGFR2 internalization in human A549 cells at 18 uM after 24 hrs by immunofluorescence assay; type: cell-based
# Chain of Vascular endothelial growth factor receptor 2 (Homo sapiens) (P35968 whole entry): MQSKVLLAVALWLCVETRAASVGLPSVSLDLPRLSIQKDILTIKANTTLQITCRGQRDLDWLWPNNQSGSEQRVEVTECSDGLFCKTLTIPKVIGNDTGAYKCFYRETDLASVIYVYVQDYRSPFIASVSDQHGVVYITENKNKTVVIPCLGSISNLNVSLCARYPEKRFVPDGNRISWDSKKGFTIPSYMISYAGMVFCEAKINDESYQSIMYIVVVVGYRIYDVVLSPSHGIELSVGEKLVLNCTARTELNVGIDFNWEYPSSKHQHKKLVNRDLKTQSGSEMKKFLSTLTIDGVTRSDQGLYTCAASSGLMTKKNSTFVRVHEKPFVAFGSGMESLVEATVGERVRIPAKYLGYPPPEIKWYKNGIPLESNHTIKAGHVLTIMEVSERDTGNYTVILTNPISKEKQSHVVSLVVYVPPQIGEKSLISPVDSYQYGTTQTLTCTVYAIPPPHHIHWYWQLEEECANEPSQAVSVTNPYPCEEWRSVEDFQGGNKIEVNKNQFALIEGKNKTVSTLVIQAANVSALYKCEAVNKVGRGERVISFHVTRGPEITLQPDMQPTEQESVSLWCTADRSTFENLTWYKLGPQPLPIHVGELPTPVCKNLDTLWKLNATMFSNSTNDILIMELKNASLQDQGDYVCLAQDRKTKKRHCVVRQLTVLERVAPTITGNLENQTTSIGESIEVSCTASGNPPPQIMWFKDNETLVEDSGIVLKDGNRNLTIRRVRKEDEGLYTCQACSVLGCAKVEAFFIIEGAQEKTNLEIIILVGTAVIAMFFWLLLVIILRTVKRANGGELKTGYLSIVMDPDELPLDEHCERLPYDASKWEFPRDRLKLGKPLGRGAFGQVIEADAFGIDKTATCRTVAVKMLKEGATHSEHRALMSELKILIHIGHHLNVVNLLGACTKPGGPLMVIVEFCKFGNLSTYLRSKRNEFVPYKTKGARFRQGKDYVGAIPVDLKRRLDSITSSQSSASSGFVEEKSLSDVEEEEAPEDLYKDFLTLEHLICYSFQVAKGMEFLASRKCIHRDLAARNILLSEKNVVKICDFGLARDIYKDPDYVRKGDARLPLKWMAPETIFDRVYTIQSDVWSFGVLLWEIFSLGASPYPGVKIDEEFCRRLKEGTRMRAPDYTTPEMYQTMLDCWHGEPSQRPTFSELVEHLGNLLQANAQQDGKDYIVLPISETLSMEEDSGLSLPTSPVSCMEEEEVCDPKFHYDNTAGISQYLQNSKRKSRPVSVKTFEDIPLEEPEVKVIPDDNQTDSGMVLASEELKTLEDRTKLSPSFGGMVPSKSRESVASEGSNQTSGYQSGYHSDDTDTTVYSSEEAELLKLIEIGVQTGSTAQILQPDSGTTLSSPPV
structure (smiles),measurement,setting,value
COc1ccc(/C=C\c2cc(OC)c(OC)c(OC)c2)cc1NC(=O)Nc1cccc(Br)c1,Activity,Tubulin (Homo sapiens) [1],Active
CCN(CC)CCNC(=O)c1c(C)[nH]c(/C=C2\C(=O)Nc3ccc(F)cc32)c1C [SUNITINIB],Activity,A549 [2],2.4%
same,Activity,A549 [3],38%
same,Activity,A549 [4],16%
same,IC50,HMEC-1,7 µM
same,Activity,A549 [5],47%
same,IC50,HL-60,7 µM
same,Activity,A549 [6],45%
same,Activity,A549 [7],35%
CNC(=O)c1cc(Oc2ccc(NC(=O)Nc3ccc(Cl)c(C(F)(F)F)c3)cc2)ccn1 [SORAFENIB],Activity,A549 [3],30%
same,IC50,HMEC-1,34 µM
same,IC50,HL-60,5 µM
same,Activity,A549 [6],38%
COc1ccc(/C=C\c2cc(OC)c(OC)c(OC)c2)cc1NC(=O)Nc1ccc(Cl)c(C)c1,inhibition,[8],Active
same,Activity,[9],80%
same,inhibition,[10],Active
same,Activity,[11],100%
COc1ccc(/C=C\c2cc(OC)c(OC)c(OC)c2)cc1NC(=O)Nc1cc(C)cc(C)c1,Activity,[12],62%
same,Activity,[13],15%
same,inhibition,[14],Active
same,inhibition,[15],Active
COc1ccc(/C=C\c2cc(OC)c(OC)c(OC)c2)cc1N,Activity,A549 [3],32%
same,Activity,A549 [16],14%
same,Activity,A549 [17],21%
same,Activity,A549 [18],41%
same,Activity,A549 [19],24%
same,Activity,A549 [6],52%
COc1ccc(/C=C\c2cc(OC)c(OC)c(OC)c2)cc1NC(=O)Nc1cccc(Cl)c1C,Activity,Tubulin (Homo sapiens) [1],Active
same,Activity,[20],97%
same,Activity,[21],71%
COc1ccc(/C=C\c2cc(OC)c(OC)c(OC)c2)cc1NC(=O)Nc1ccccc1Cl,inhibition,[22],Active
same,inhibition,[23],Active
same,Activity,[24],46%
same,Activity,[25],43%
COc1ccc(/C=C\c2cc(OC)c(OC)c(OC)c2)cc1NC(=O)Nc1ccc(C)c(C)c1,Activity,Tubulin (Homo sapiens) [26],Active
same,inhibition,[27],Active
same,Activity,[28],61%
same,inhibition,[29],Active
same,Activity,[30],148%
COc1ccc(/C=C\c2cc(OC)c(OC)c(OC)c2)cc1NC(=O)Nc1ccccc1Br,Activity,[31],48%
same,inhibition,[32],Active
same,Activity,[33],80%
same,inhibition,[23],Active
same,Activity,Tubulin (Homo sapiens) [1],Active
COc1ccc(/C=C\c2cc(OC)c(OC)c(OC)c2)cc1NC(=O)Nc1cccc(C)c1,Activity,Tubulin (Homo sapiens) [34],Active
same,inhibition,[35],Active
same,Activity,[36],87%
same,Activity,[37],71%
same,inhibition,[38],Active
